Reference: patent US20200017496A1 (priority 2017, published 2020)

Experiments:
Assay type in all cases: cell-based
[1] = system: Enterobacter aerogenes (EAE) isolates; assay: MIC of compounds alone and combined with antibacterials, broth microdilution (CLSI); settings: AF1 @ 4 μg/mL
Outline: (§1)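 Inoculum 5·10^5 CFU/mL (final), log phase, ca-MHB; 16-20 h, 35° C, ambient air. MIC = lowest conc. with no visible growth; ATB MIC read at each compound level.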

[2] = system: Escherichia coli (ECO) isolates; assay: as above; settings: AF1 @ 4 μg/mL
Outline: as §1

[3] = system: Morganella morganii (MMO) isolates; assay: as above; settings: AF1 @ 4 μg/mL
Outline: as §1

[4] = system: Providencia stuartii (PST) isolates; assay: as above; settings: AF1 @ 4 μg/mL
Outline: as §1

[5] = system: Serratia marcescens (SMA) isolates; assay: as above
Outline: as §1

[6] = system: Proteus mirabilis (PMI) isolates; assay: microbe, parasite or virus in culture; settings: AF1 @ 4 μg/mL
Outline: as §1

## COCC1=C(C(=O)O)N2C(=O)[C@@H](NC(=O)/C(=N\OC)c3csc(N)n3)[C@H]2SC1 [POD, Cefpodoxime]
[1]; EAE 49469
  MIC ATB in combination: 8 µg/mL
[1]; EAE 200261
  MIC ATB in combination: 4 µg/mL
[1]; EAE UFR199
  MIC ATB in combination: 1 µg/mL
[1]; EAE UFR201
  MIC ATB in combination: <=0.25 μg/mL
[1]; EAE UFR202
  MIC ATB in combination: 2 µg/mL
[1]; EAE UFR213
  MIC ATB in combination: 1 µg/mL
[2]; ECO 4133
  MIC ATB in combination: <=0.25 μg/mL
[2]; ECO 5302
  MIC ATB in combination: <=0.25 μg/mL
[2]; ECO 131119
  MIC ATB in combination: <=0.25 μg/mL
[2]; ECO 180070
  MIC ATB in combination: <=0.25 μg/mL
[2]; ECO 190314
  MIC ATB in combination: <=0.25 μg/mL
[2]; ECO 190317
  MIC ATB in combination: <=0.25 μg/mL
[2]; ECO 190457
  MIC ATB in combination: <=0.25 μg/mL
[2]; ECO 190549
  MIC ATB in combination: <=0.25 μg/mL
[2]; ECO 200159
  MIC ATB in combination: <=0.25 μg/mL
[2]; ECO 200259
  MIC ATB in combination: <=0.25 μg/mL
[2]; ECO 200344
  MIC ATB in combination: <=0.25 μg/mL
[2]; ECO 260096
  MIC ATB in combination: <=0.25 μg/mL
[2]; ECO 260304
  MIC ATB in combination: <=0.25 μg/mL
[2]; ECO 260508
  MIC ATB in combination: <=0.25 μg/mL
[2]; ECO RGN238
  MIC ATB in combination: <=0.25 μg/mL
[2]; ECO UFR15
  MIC ATB in combination: <=0.25 μg/mL
[2]; ECO UFR16
  MIC ATB in combination: 1 µg/mL
[2]; ECO UFR17
  MIC ATB in combination: >128 µg/mL
[2]; ECO UFR18
  MIC ATB in combination: 8 µg/mL
[2]; ECO UFR19
  MIC ATB in combination: 4 µg/mL
[2]; ECO UFR20
  MIC ATB in combination: 4 µg/mL
[2]; ECO UFR61O
  MIC ATB in combination: 0.5 µg/mL
[2]; ECO UFR62
  MIC ATB in combination: 0.5 µg/mL
[2]; ECO UFR74
  MIC ATB in combination: 2 µg/mL
[2]; ECO UFR86
  MIC ATB in combination: 1 µg/mL
[2]; ECO UFR174
  MIC ATB in combination: <=0.25 μg/mL
[2]; ECO UFR175
  MIC ATB in combination: 1 µg/mL
[2]; ECO UFR176
  MIC ATB in combination: <=0.25 μg/mL
[2]; ECO UFR184
  MIC ATB in combination: 4 µg/mL
[2]; ECO UFR185
  MIC ATB in combination: 32 µg/mL
[2]; ECO UFR186
  MIC ATB in combination: 1 µg/mL
[2]; ECO UFR187
  MIC ATB in combination: 0.5 µg/mL
[2]; ECO UFR189
  MIC ATB in combination: <=0.25 μg/mL
[2]; ECO UFR190
  MIC ATB in combination: <=0.25 μg/mL
[2]; ECO UFR191
  MIC ATB in combination: <=0.25 μg/mL
[2]; ECO UFR207
  MIC ATB in combination: <=0.25 μg/mL
[2]; ECO UFR208
  MIC ATB in combination: 64 µg/mL
[2]; ECO UFR209
  MIC ATB in combination: <=0.25 μg/mL
[2]; ECO UFR210
  MIC ATB in combination: <=0.25 μg/mL
[2]; ECO UFR211
  MIC ATB in combination: <=0.25 μg/mL
[2]; ECO UFR212
  MIC ATB in combination: 32 µg/mL
[2]; ECO UFR218
  MIC ATB in combination: <=0.25 μg/mL
[3]; MMO 200321
  MIC ATB in combination: 2 µg/mL
[3]; MMO UFR144
  MIC ATB in combination: 2 µg/mL
[3]; MMO UFR240
  MIC ATB in combination: <=0.25 μg/mL
[3]; MMO UFR241
  MIC ATB in combination: 2 µg/mL
[3]; MMO UFR242
  MIC ATB in combination: 4 µg/mL
[3]; MMO UFR243
  MIC ATB in combination: 4 µg/mL
[3]; MMO UFR244
  MIC ATB in combination: <=0.25 μg/mL
[3]; MMO UFR245
  MIC ATB in combination: 2 µg/mL
[3]; MMO UFR246
  MIC ATB in combination: 4 µg/mL
[3]; MMO UFR247
  MIC ATB in combination: 1 µg/mL
[4]; PST UFR94
  MIC ATB in combination: 0.5 µg/mL
[4]; PST UFR95
  MIC ATB in combination: 2 µg/mL
[4]; PST UFR235
  MIC ATB in combination: 2 µg/mL
[5]; SMA UFR30, AF1 @ 4 μg/mL
  MIC ATB in combination: 0.5 µg/mL
[5]; SMA UFR134, AF1 @ 4 μg/mL
  MIC ATB in combination: 2 µg/mL
[5]; SMA UFR135, AF1 @ 4 μg/mL
  MIC ATB in combination: 4 µg/mL
[5]; SMA UFR136, AF1 @ 4 μg/mL
  MIC ATB in combination: 8 µg/mL
[5]; SMA UFR137, AF1 @ 4 μg/mL
  MIC ATB in combination: 0.5 µg/mL
[5]; SMA UFR138, AF1 @ 4 μg/mL
  MIC ATB in combination: 0.5 µg/mL
[5]; SMA UFR139, AF1 @ 4 μg/mL
  MIC ATB in combination: 2 µg/mL
[5]; SMA UFR141, AF1 @ 4 μg/mL
  MIC ATB in combination: 2 µg/mL
[5]; SMA UFR142, AF1 @ 4 μg/mL
  MIC ATB in combination: 1 µg/mL
[5]; SMA UFR143, AF1 @ 4 μg/mL
  MIC ATB in combination: 1 µg/mL
[5]; SMA UFR239, AF1 @ 4 μg/mL
  MIC ATB in combination: 2 µg/mL
[5]; strain SMA UFR238, antibacterial combined with AF1 @ 4 μg/mL
  MIC ATB in combination: 2 µg/mL
[6]; PMI UFR82
  MIC ATB in combination: 1 µg/mL
[6]; PMI UFR120
  MIC ATB in combination: <=0.25 μg/mL
[6]; PMI UFR121
  MIC ATB in combination: <=0.25 μg/mL
[6]; PMI UFR122
  MIC ATB in combination: <=0.25 μg/mL
[6]; PMI UFR123
  MIC ATB in combination: <=0.25 μg/mL
[6]; PMI UFR124
  MIC ATB in combination: <=0.25 μg/mL
[6]; PMI UFR125
  MIC ATB in combination: <=0.25 μg/mL
[6]; PMI UFR126
  MIC ATB in combination: <=0.25 μg/mL
[6]; PMI UFR127
  MIC ATB in combination: <=0.25 μg/mL
[6]; PMI UFR129
  MIC ATB in combination: <=0.25 μg/mL
[6]; PMI UFR130
  MIC ATB in combination: 0.5 µg/mL
[6]; PMI UFR237
  MIC ATB in combination: <=0.25 μg/mL
